Assay results from PubChem BioAssay (NCI).
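Cultured in 96-well plates, cells were exposed to test compound for 48 hours across five concentrations. GI50 marks 50% less growth. TGI: total growth inhibition.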

Columns and labels:
Assay in all cases: inhibition of tumour cell growth, NCI panel, 48 h
[1] = test system: 786-0 renal
[2] = test system: A498 renal
[3] = test system: A549 NSCLC
[4] = test system: ACHN renal
[5] = test system: BT-549 breast
[6] = test system: CAKI-1 renal
[7] = test system: CCRF-CEM leukemia
[8] = test system: COLO 205 colon
[9] = test system: DU-145 prostate
[10] = test system: EKVX NSCLC
[11] = test system: HCC-2998 colon
[12] = test system: HCT-116 colon
[13] = test system: HCT-15 colon
[14] = test system: HL-60(TB) leukemia
[15] = test system: HOP-62 NSCLC
[16] = test system: HOP-92 NSCLC
[17] = test system: HS 578T breast
[18] = test system: HT29 colon
[19] = test system: IGROV1 ovarian
[20] = test system: K-562 leukemia
[21] = test system: KM12 colon
[22] = test system: LOX IMVI melanoma
[23] = test system: M14 melanoma
[24] = test system: MALME-3M melanoma
[25] = test system: MCF7 breast
[26] = test system: MDA-MB-231 breast
[27] = test system: MDA-MB-435
[28] = test system: MDA-MB-468 breast
[29] = test system: MOLT-4 leukemia
[30] = test system: NCI-H226 lung
[31] = test system: NCI-H23 lung
[32] = test system: NCI-H460 lung
[33] = test system: NCI-H522 lung
[34] = test system: NCI/ADR-RES ovarian
[35] = test system: OVCAR-3 ovarian
[36] = test system: OVCAR-4 ovarian
[37] = test system: OVCAR-5 ovarian
[38] = test system: OVCAR-8 ovarian
[39] = test system: PC-3 prostate
[40] = test system: RPMI-8226 leukemia
[41] = test system: RXF 393 renal
[42] = test system: SF-268 CNS
[43] = test system: SF-295 CNS
[44] = test system: SF-539 CNS
[45] = test system: SK-MEL-2 melanoma
[46] = test system: SK-MEL-28 melanoma
[47] = test system: SK-MEL-5 melanoma
[48] = test system: SK-OV-3 ovarian
[49] = test system: SN12C renal
[50] = test system: SNB-19 CNS
[51] = test system: SNB-75 CNS
[52] = test system: SR leukemia
[53] = test system: SW-620 colon
[54] = test system: T-47D breast
[55] = test system: TK-10 renal
[56] = test system: U251 CNS
[57] = test system: UACC-257 melanoma
[58] = test system: UACC-62 melanoma
[59] = test system: UO-31 renal

Cc1ccc(-c2nc(Nc3ccccc3C(=O)O)c3ccccc3n2)cc1
GI50 [1]: 17.1 µM
TGI [1]: > 100 µM
GI50 [2]: 19.9 µM
TGI [2]: 58.1 µM
GI50 [3]: 8.31 µM
TGI [3]: > 100 µM
GI50 [4]: 6.44 µM
TGI [4]: 91.1 µM
GI50 [5]: 14.6 µM
TGI [5]: 33.8 µM
GI50 [6]: 13.8 µM
TGI [6]: > 100 µM
GI50 [7]: 5.72 µM
TGI [7]: > 100 µM
GI50 [8]: 17.8 µM
TGI [8]: 41 µM
GI50 [9]: 17.7 µM
TGI [9]: > 100 µM
GI50 [10]: 8.89 µM
TGI [10]: 56.2 µM
GI50 [11]: 12.4 µM
TGI [11]: 36 µM
GI50 [12]: 10.1 µM
TGI [12]: 36.1 µM
GI50 [13]: 5.83 µM
TGI [13]: 28.7 µM
GI50 [14]: 12.9 µM
TGI [14]: 75.4 µM
GI50 [15]: 10.8 µM
TGI [15]: 33.7 µM
GI50 [16]: 2.85 µM
TGI [16]: 29.3 µM
GI50 [17]: 10.2 µM
TGI [17]: 67 µM
GI50 [18]: 17.9 µM
TGI [18]: > 100 µM
GI50 [19]: 19.1 µM
TGI [19]: 87.1 µM
GI50 [20]: 7.05 µM
TGI [20]: > 100 µM
GI50 [21]: 13.7 µM
TGI [21]: 81.2 µM
GI50 [22]: 10.2 µM
TGI [22]: 31.6 µM
GI50 [23]: 15.5 µM
TGI [23]: 77.4 µM
GI50 [24]: 15.6 µM
TGI [24]: 64.5 µM
GI50 [25]: 9.41 µM
TGI [25]: 89.9 µM
GI50 [26]: 17.2 µM
TGI [26]: 59.7 µM
GI50 [27]: 13.9 µM
TGI [27]: 87.2 µM
GI50 [28]: 8.29 µM
TGI [28]: 42.3 µM
GI50 [29]: 11.7 µM
TGI [29]: > 100 µM
GI50 [30]: 10.2 µM
TGI [30]: 54.2 µM
GI50 [31]: 15.7 µM
TGI [31]: 44.4 µM
GI50 [32]: 8.52 µM
TGI [32]: 27.7 µM
GI50 [33]: 4.35 µM
TGI [33]: 27.1 µM
GI50 [34]: 16.8 µM
TGI [34]: 98.5 µM
GI50 [35]: 13.1 µM
TGI [35]: 51.3 µM
GI50 [36]: 8.77 µM
TGI [36]: > 100 µM
GI50 [37]: 21.8 µM
TGI [37]: 68.9 µM
GI50 [38]: 18.2 µM
TGI [38]: > 100 µM
GI50 [39]: 12.7 µM
TGI [39]: > 100 µM
GI50 [40]: 4.44 µM
TGI [40]: > 100 µM
GI50 [41]: 13.1 µM
TGI [41]: 65.9 µM
GI50 [42]: 14.3 µM
TGI [42]: > 100 µM
GI50 [43]: 7.04 µM
TGI [43]: 27 µM
GI50 [44]: 11.9 µM
TGI [44]: 28.3 µM
GI50 [45]: 3.65 µM
TGI [45]: 15.6 µM
GI50 [46]: 15.9 µM
TGI [46]: 97.4 µM
GI50 [47]: 5.32 µM
TGI [47]: 20.3 µM
GI50 [48]: 11.9 µM
TGI [48]: 55.3 µM
GI50 [49]: 11 µM
TGI [49]: 60.4 µM
GI50 [50]: 8.09 µM
TGI [50]: 81.7 µM
GI50 [51]: 1.36 µM
TGI [51]: 80.3 µM
GI50 [52]: 10.3 µM
TGI [52]: > 100 µM
GI50 [53]: 18.2 µM
TGI [53]: > 100 µM
GI50 [54]: 6.29 µM
TGI [54]: 70 µM
GI50 [55]: 29.2 µM
TGI [55]: > 100 µM
GI50 [56]: 5.58 µM
TGI [56]: 35 µM
GI50 [57]: 15.3 µM
TGI [57]: 90.3 µM
GI50 [58]: 10.2 µM
TGI [58]: 27 µM
GI50 [59]: 7.33 µM
TGI [59]: 77.9 µM
